Laboratory results as given in article PMC9434621 (ACS Omega, 2022).

Legend:
bovine erythrocyte CA [1] = target: T1, bovine erythrocyte CA (Bos taurus, UniProt P00921); settings: test concentration not given; Figure 2
bovine erythrocyte CA [2] = target: T1, bovine erythrocyte CA; settings: sample 0.5 mM in DMSO, 15 min incubation with enzyme at room temperature
bovine erythrocyte CA [3] = target: T1, bovine erythrocyte CA; experiment: biochemical

T1 sequence (P00921 whole entry): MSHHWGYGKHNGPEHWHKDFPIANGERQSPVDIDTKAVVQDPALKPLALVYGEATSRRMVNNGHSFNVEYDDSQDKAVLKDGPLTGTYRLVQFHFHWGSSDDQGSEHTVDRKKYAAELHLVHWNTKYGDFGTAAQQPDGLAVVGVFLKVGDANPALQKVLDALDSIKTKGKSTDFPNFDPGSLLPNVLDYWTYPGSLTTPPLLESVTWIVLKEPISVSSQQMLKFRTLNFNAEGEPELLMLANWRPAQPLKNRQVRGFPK

% inhibition (bovine erythrocyte CA [1]) [%]	enhancement of fluorescence signal after complex formation with CA (bovine erythrocyte CA [2])	IC50 (bovine erythrocyte CA [3]) [µM]	Compound
58.4			CCCC1=NOC(=O)/C1=C/c1ccc(OC)cc1O [AC1, (E)-4-(2-Hydroxy-4-methoxybenzylidene)-3-propylisoxazol-5(4H)-one]
79.5	significant fluorescence enhancement	112 ± 1.6	CCCC1=NOC(=O)/C1=C/c1cccs1 [AC2, (E)-3-Propyl-4-(thiophen-2-ylmethylene) Isoxazol-5(4H)-one]
50.5			CCCC1=NOC(=O)/C1=C/c1ccc(O)cc1 [AC4, (E)-4-(4-Hydroxybenzylidene)-3-propylisoxazol-5(4H)-one]
68.7	significant fluorescence enhancement		(E)-4-(2-Methoxybenzylidene)-3-propylisoxazol-5(4H)-one [AC3]
